In PubChem BioAssay (NCI):
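Assay format: 96-well plates, 48-hour exposure. GI50 is the concentration that inhibits growth by half. TGI: concentration producing complete growth inhibition.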

Columns and labels:
Experiment in all cases: NCI anticancer screen, dose series, 48 h
[1] = tested on: CCRF-CEM leukemia
[2] = tested on: EKVX NSCLC
[3] = tested on: HS 578T breast
[4] = tested on: HT29 colon
[5] = tested on: IGROV1 ovarian
[6] = tested on: MCF7 breast
[7] = tested on: SN12C renal

SMILES	GI50 [1] [µM]	TGI [1] [µM]	GI50 [2] [µM]	TGI [2] [µM]	GI50 [3] [µM]	TGI [3] [µM]	GI50 [4] [µM]	TGI [4] [µM]	GI50 [5] [µM]	TGI [5] [µM]	GI50 [6] [µM]	TGI [6] [µM]	GI50 [7] [µM]	TGI [7] [µM]
CC12OC(C(=O)C13CCC3)C1C(=O)c3ccc4c(ccc5ccccc54)c3C(=O)C12 (stereo unspecified)	2.99	15.2	20.7	63.7	16	76.1	3.85	19.2	21.4	> 100	5.1	30.7	2.72	19.6
CCN(CC)c1ccc2nc3ccc(N=Nc4ccc(O)cc4)cc3[n+](-c3ccccc3)c2c1	–	–	3.59	64.8	1.88	> 100	3.15	> 100	–	–	1.9	5.11	10.7	36.7
COc1ccc2[nH]c(C(=O)OCc3ccc4cccc(O)c4n3)cc2c1	0.148	1.11	1.51	2.89	1.78	4.6	0.775	2.77	0.751	2.08	0.723	2.79	1.18	2.54
Nc1ccc(-c2ccc3ncc4ccc(=O)n(-c5cccc(C(F)(F)F)c5)c4c3c2)cn1	< 0.01	1.93	–	–	< 0.01	< 0.0253	0.115	12	< 0.01	0.314	< 0.01	12.8	< 0.0131	> 52.2
COc1ccc2c(c1)O/C(=C\c1cccc(OCC(=O)Nc3nc(C)c(C)s3)c1)C2=O	0.312	3.07	8.42	> 54.1	5.24	> 41.5	2.73	> 21	0.152	0.316	3.17	50.1	2	> 100
CCN(CC)c1nc(NC2CCCCC2)c2nc(N(CC)CC)nc(NC3CCCCC3)c2n1	–	> 100	–	> 100	–	> 100	–	> 100	–	> 100	–	> 100	–	> 100
COc1cc(-c2nccc3cc4c(cc23)OCO4)cc(OC)c1OC	–	–	7.1	> 100	1.64	9.57	2.33	> 100	8.92	> 100	2.88	> 100	7.64	> 100
NCCOc1ncccc1/C=C1\c2ccccc2-c2ccc([N+](=O)[O-])cc21	0.0181	0.0973	0.116	0.474	0.255	1.26	0.0898	1.04	0.131	0.728	< 0.0109	0.409	0.0284	0.178
CN1CCN(CCCOc2cccc3nc(Nc4ccc(F)c(F)c4)ccc23)CC1	2.42	8.06	4.83	9.41	4.73	11.8	0.616	1.35	5.55	11.4	3.33	7.88	4.87	9.93
O=C(Oc1ccccc1)C(Br)C(Br)c1ccccc1 (stereo unspecified)	1.39	6.68	11.9	24.8	2.87	8.12	–	–	2	3.96	1.68	11.4	1.88	4.5
COc1cc(Nc2ncnc(Nc3ccc4c(n3)NC(=O)C(C)(C)O4)n2)cc(OC)c1OC	3.73	> 100	–	–	0.149	0.66	0.803	> 100	0.247	1.72	1.32	> 100	0.411	> 100
Cc1cn2c(/C=N/N=C(N)N)c(-c3ccncc3)nc2s1	7.16	22.4	12.5	26.8	–	–	20.1	46.8	22.1	49.2	–	–	32.7	69.7
CC(C)(C)c1nc(-c2cccc(NS(=O)(=O)c3c(F)cccc3F)c2F)c(-c2ccnc(N)n2)s1	21.7	> 86.2	–	–	61.1	> 100	< 0.01	> 100	56.1	> 100	27.3	> 100	17.7	> 100
COc1cccc(NC(=O)c2sc3nc4c(cc3c2N)C(O)CCC4)c1 (stereo unspecified)	0.22	> 100	–	–	0.325	> 49.9	0.133	> 100	0.383	> 100	0.0523	> 100	0.562	> 100
COc1ccc(-c2n[nH]nc2-c2cc(OC)c3c(c2)OCO3)cc1	0.0264	14.2	–	–	0.0219	3.72	0.0365	4.29	0.0289	> 100	< 0.01	> 82.3	0.071	55.6
CCc1nc2cc(/C=C/C(=O)NO)ccc2c(=O)n1CCc1ccc(OC)cc1	3.17	> 100	3.91	43.9	2.13	34.3	2.31	49.5	–	–	2.38	17.7	–	–
CCCCN1C(=O)/C(=c2\sc3n(c2=O)C2C(NN=3)N(CC)C(=O)N2CC)c2ccccc21 (stereo unspecified)	1.81	> 100	1.38	> 100	0.749	6.04	–	–	0.764	3.6	–	–	–	–
COc1cc2nc(-c3cccc4cccnc34)nc(NC3CCN(Cc4ccccc4)CC3)c2cc1OC	0.576	2.83	1.48	3.3	2.07	4.81	0.419	1.85	0.93	2.31	–	–	1.11	2.58
